Measurements as given in patent US20260055369A1, “METHOD FOR GENERATING CELLS OF THE T CELL LINEAGE WITH ENGINEERING BROADLY REACTIVE HUMAN NOTCH LIGAND” (H. Lee Moffitt Cancer Center and Research Institute, Inc., priority 2022, published 2026).
pIC50: −log10 of the molar value.

Legend:
Notch1 [1] = experiment: Notch inhibition assay with soluble antagonists and WT DLL4 coated plates (CHO-K1 N1-Gal4); format: cell-based; details: comparison with DAPT and BB-94, plates coated with 50 nM WT DLL4; FIG. 4B; read-out: IC50 for inhibition of Notch1 activation
Protocol: For CHO-K1 N1-Gal4 reporter cells, on day one, biotinylated WT DLL4 was pre-coated in 96-well plates at 50 nM following the same protocol described above. Next, CHO-K1 N1-Gal4 cells were detached with trypsin-EDTA, washed, and diluted at 200,000 cells/mL in α-MEM media. Ten-fold serial dilutions of non-biotinylated DLL4 ligands (N-EGF5) were prepared in DPBS starting at 600 nM. Next, soluble inhibitors were mixed in ratio 1:1 with CHO-K1 N1-Gal4 200,000 cells/mL stocks for 15 min at room temperature to pre-block Notch receptors. Two hundred microliters of inhibition reactions containing 20,000 reporter cells were added to WT DLL4-coated wells, and plates incubated for 24 hours at 37° C. and 5% CO2. When DAPT (gamma-secretase inhibitor, Sigma) and BB-94 (ADAM metalloprotease inhibitor, Sigma) were used, stock solutions were prepared at 100 μM in 8% DMSO. Appropriate DMSO controls were included to test Notch activation and cell viability. Final DMSO concentration in the experiment was kept below 1%. […] On day two, assay plates were washed with 200 μL of DPBS, CHO-K1 N1-Gal4 cells detached with trypsin-EDTA, quenched with 200 μL of α-MEM media, and Notch activation measured by flow cytometry (BD Accuri C6 Plus). […]

Notch1 [2] = experiment: Notch inhibition assay in co-culture format (CHO-K1 N1-Gal4 with HEK293T expressing WT DLL4); format: cell-based; details: co-culture 1:1 with HEK293T expressing WT DLL4; read-out: IC50 for inhibition of Notch1 activation by cellular DLL4
Protocol: For inhibition of CHO-K1 N1-Gal4 cells with DAPT and Delta^MAX, the experiment was set-up following the protocol described above with the exception that CHO-K1 N1-Gal4 reporters were incubated with HEK293T-expressing WT DLL4 for Notch activation. Three-fold serial dilutions of soluble Delta^MAX and DAPT were prepared in DPBS starting at 6,000 nM. For DAPT, a stock solution of 100 μM in 8% DMSO was prepared before serial dilutions in DPBS. Appropriate DMSO controls were also assayed for cytotoxicity. Final DMSO concentration in the wells was maintained below 1%. Thirty thousand signal senders and pre-blocked signal receivers (100 μL each) were incubated for 24 hours at 37° C. and 5% CO2 before analysis by flow cytometry. Maximum Notch activation (100%) was set in the absence of soluble inhibitors and normalized to wells containing CHO-K1 N1-Gal4 cells and HEK293T lacking expression of WT DLL4. Mean fluorescence intensity is represented as percentage relative to Notch activation in the absence of inhibitors±s.d. of three independent biological replicates.

pIC50 (Notch1 [1])	pIC50 (Notch1 [2])	SMILES
7.40	7.00	C[C@H](NC(=O)Cc1cc(F)cc(F)c1)C(=O)N[C@H](C(=O)OC(C)(C)C)c1ccccc1 [DAPT, reference compound]
6.00	–	CNC(=O)[C@H](Cc1ccccc1)NC(=O)[C@H](CC(C)C)[C@H](CSc1cccs1)C(=O)NO [BB-94, reference compound]
